# Results taken from patent publication US8592174B2, “Peptidase substrates” (bioMérieux, S.A., priority 2009, dated 2013).
# Key:
# Experiment in all cases: Peptidase detection on Columbia medium (Example 3)
# Type in all cases: cell-based
# Conditions in all cases: 75 mg/l, 48 h 37° C.
# [1] = test system: Citrobacter freundii 0006197; further: key: +++: good growth/high coloration strength; ++: medium growth/medium coloration strength; +: weak growth/weak coloration strength; −: no growth/no coloration
# From the text: (§1) A medium serving as a growth control (Columbia) and denoted C was also poured.
# [2] = test system: Staphylococcus aureus 7811049; further: key: +++: good growth/high coloration strength; ++: medium growth/medium coloration strength; +: weak growth/weak coloration strength; −: no growth/no coloration
# From the text: as §1
# Candida albicans 0801025 = test system: Candida albicans 0801025; further: key: +++: good growth/high coloration strength; ++: medium growth/medium coloration strength; +: weak growth/weak coloration strength; −: no growth/no coloration
# From the text: as §1
# [3] = test system: Enterococcus faecalis 0008192; further: key: +++: good growth/high coloration strength; ++: medium growth/medium coloration strength; +: weak growth/weak coloration strength; −: no growth/no coloration
# From the text: as §1
# [4] = test system: Morganella morganii 9207053
# From the text: as §1
# [5] = test system: Providencia rettgeri 0706064
# From the text: as §1
# Candida glabrata 0408083 = test system: Candida glabrata 0408083
# From the text: as §1
# [6] = test system: Listeria monocytogenes 8812049
# From the text: as §1
# [7] = test system: Yersinia enterocolitica 7605019
# From the text: as §1
# [8] = test system: Bacillus subtilis 0204038
# From the text: as §1
# [9] = test system: Salmonella ser. Typhimurium 0801029
# From the text: as §1
# [10] = test system: Enterococcus faecium 0610021
# From the text: as §1
# [11] = test system: Enterobacter cloacae 0604040
# From the text: as §1
# [12] = test system: Acinetobacter baumannii 0604029
# From the text: as §1
# Escherichia coli 0002005 = test system: Escherichia coli 0002005
# From the text: as §1
# MRSA 0303033 = test system: MRSA 0303033
# From the text: as §1
# [13] = test system: Burkholderia cepacia 7507032
# From the text: as §1
# [14] = test system: Staphylococcus epidermidis 0203050
# From the text: as §1
# [15] = test system: Streptococcus pyogenes 9806380
# From the text: as §1
# [16] = test system: Klebsiella pneumoniae 0008009
# From the text: as §1
# [17] = test system: Serratia marcescens 7303004; design: Coloration strength: key to the marks not given beside the values
# From the text: as §1
# [18] = test system: Pseudomonas aeruginosa 0001001; design: Coloration strength: key to the marks not given beside the values
# From the text: as §1
smiles,measurement,setting,value
Cc1cc(C=Cc2ccc(NC(=O)[C@@H]3CCC(=O)N3)cc2)c2ccccc2[n+]1C.[I-] [pyroglutamyl-4-(4′-amidostyryl)-N-methylquinaldinium iodide],Coloration strength,[1],−
same,Growth,[1]; control C: +++,+++
same,Coloration strength,[2],−
same,Growth,[2]; control C: ++,++
same,Coloration strength,Candida albicans 0801025,−
same,Growth,Candida albicans 0801025; control C: ++,+
same,Coloration strength,[3],−
same,Growth,[3]; control C: ++,++
same,Coloration strength,[4],−
same,Growth,[4]; control C: +++,+++
same,Coloration strength,[5],−
same,Growth,[5]; control C: +++,+++
same,Coloration strength,Candida glabrata 0408083,−
same,Growth,Candida glabrata 0408083; control C: +,−
same,Coloration strength,[6],−
same,Growth,[6]; control C: ++,++
same,Coloration strength,[7],−
same,Growth,[7]; control C: ++,+
same,Coloration strength,[8],−
same,Growth,[8]; control C: +++,−
same,Coloration strength,[9],−
same,Growth,[9]; control C: +++,+++
same,Coloration strength,[10],−
same,Growth,[10]; control C: ++,++
same,Coloration strength,[11],−
same,Growth,[11]; control C: +++,+++
same,Coloration strength,[12],−
same,Growth,[12]; control C: +++,+++
same,Coloration strength,Escherichia coli 0002005,−
same,Growth,Escherichia coli 0002005; control C: +++,+++
same,Coloration strength,MRSA 0303033,−
same,Growth,MRSA 0303033; control C: +++,++
same,Coloration strength,[13],−
same,Growth,[13]; control C: ++,++
same,Coloration strength,[14],−
same,Growth,[14]; control C: ++,−
same,Coloration strength,[15],−
same,Growth,[15]; control C: −,−
same,Coloration strength,[16],−
same,Growth,[16]; control C: +++,+++
same,Coloration strength,[17],++
same,Growth,[17]; control C: +++,+++
same,Color,[18],Orangey-red
same,Coloration strength,[18],+++
same,Growth,[18]; control C: +++,+++
